Values quoted from earlier work as cited in US20090142391A1, “Conjugated RNAi Therapeutics” (priority 2007, published 2009).

Conditions: in the blood

distribution into protected cellular compartments: 72-98%
SMILES: C=CC[C@@H]1/C=C(\C)C[C@H](C)C[C@H](OC)[C@H]2O[C@@](O)(C(=O)C(=O)N3CCCC[C@H]3C(=O)O[C@H](/C(C)=C/[C@@H]3CC[C@@H](O)[C@H](OC)C3)[C@H](C)[C@@H](O)CC1=O)[C@H](C)C[C@@H]2OC [FK506]
